Common to all, as to assay: biochemical
Experiment [1] concerns the target GRK6 (Homo sapiens, UniProt P43250). Details: Thermo Fisher SelectScreen kinase panel: Z'-LYTE and Adapta activity, LanthaScreen binding. As for the experimental part: (§1) 5 88 GNE684 was tested in Thermo Fisher Scientific SelectScreen assay (Madison, WI) 89 against 221 representative kinases at a concentration of 10 µM, which is 476-fold greater than the Ki app 90 for GNE684 against human RIP1 in the RIP1 enzyme 91 assay. The kinase assays were carried out using Z'-LYTE and Adapta activity and 92 LanthaScreen binding assays (Thermo Fisher Scientific, Madison WI) following 93 protocols developed and performed by Thermo Fisher Scientific 94 (https://www.thermofisher.com/us/en/home/products-and-services/services/custom-95 services/screening-and-profiling-services/selectscreen-profiling-service/selectscreen-96 kinase-profiling-service.html). 97 GNE684 was also tested against 468 kinases in the KINOMEscan scanMAX kinase 98 binding assay panel at a concentration of 10 µM following protocols developed and 99 performed by DiscoverX (http://www.discoverx.com/kinase_profiling).

The target in experiment [2] is T1, ASK1 (Homo sapiens, UniProt Q99683).
T1 construct: gene MAP3K5
T1 sequence (Q99683 whole entry): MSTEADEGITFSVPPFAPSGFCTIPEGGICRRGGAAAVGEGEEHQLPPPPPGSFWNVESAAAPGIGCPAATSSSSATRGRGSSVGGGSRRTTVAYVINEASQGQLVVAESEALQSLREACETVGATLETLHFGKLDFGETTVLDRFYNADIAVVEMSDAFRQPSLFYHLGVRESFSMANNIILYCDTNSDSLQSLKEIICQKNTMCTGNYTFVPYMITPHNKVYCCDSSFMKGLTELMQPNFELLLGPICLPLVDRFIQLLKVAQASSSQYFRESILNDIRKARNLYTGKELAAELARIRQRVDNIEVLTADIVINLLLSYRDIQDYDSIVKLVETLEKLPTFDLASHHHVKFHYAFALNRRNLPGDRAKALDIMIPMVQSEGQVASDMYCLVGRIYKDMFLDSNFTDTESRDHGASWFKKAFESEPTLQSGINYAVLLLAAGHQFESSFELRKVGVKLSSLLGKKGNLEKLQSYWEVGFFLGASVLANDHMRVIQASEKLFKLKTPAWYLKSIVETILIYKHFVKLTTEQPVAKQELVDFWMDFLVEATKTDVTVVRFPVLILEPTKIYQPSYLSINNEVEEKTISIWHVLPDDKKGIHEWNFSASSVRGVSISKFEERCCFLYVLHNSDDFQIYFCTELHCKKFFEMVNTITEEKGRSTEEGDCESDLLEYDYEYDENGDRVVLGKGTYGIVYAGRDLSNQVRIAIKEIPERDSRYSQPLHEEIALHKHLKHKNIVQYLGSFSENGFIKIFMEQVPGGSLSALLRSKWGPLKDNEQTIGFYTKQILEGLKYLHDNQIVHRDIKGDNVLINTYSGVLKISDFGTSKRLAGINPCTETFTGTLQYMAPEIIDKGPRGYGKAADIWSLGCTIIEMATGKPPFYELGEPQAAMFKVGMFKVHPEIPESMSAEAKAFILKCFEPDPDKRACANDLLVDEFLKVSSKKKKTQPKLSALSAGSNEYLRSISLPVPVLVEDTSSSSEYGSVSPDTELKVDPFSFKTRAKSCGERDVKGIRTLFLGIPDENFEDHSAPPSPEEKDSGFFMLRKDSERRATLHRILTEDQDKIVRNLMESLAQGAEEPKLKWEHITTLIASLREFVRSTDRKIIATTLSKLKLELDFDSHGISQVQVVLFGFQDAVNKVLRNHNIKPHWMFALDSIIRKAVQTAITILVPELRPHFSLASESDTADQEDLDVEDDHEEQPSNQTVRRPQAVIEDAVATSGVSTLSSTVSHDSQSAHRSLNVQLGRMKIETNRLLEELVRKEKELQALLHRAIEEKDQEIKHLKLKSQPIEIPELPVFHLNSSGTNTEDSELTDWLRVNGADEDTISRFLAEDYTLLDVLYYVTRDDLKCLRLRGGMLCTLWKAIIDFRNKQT
More on the design: Thermo Fisher SelectScreen kinase panel: Z'-LYTE and Adapta activity, LanthaScreen binding. How it is done: as §1

Experiment [3] concerns the target ACVR2B (Homo sapiens, UniProt Q13705). Details: Thermo Fisher SelectScreen kinase panel: Z'-LYTE and Adapta activity, LanthaScreen binding. How it is done:
as §1

Experiment [4] addresses T2, YSK1 (Homo sapiens, UniProt O00506).
T2 construct: gene STK25
More on the design: Thermo Fisher SelectScreen kinase panel: Z'-LYTE and Adapta activity, LanthaScreen binding. How it is done:
as §1

Experiment [5] has as its target T3, TIE2 (Homo sapiens, UniProt Q02763).
T3 construct: gene TEK
More on the design: Thermo Fisher SelectScreen kinase panel: Z'-LYTE and Adapta activity, LanthaScreen binding. How it is done: as §1

The target of experiment [6] is BLK (Homo sapiens, UniProt P51451). Details: Thermo Fisher SelectScreen kinase panel: Z'-LYTE and Adapta activity, LanthaScreen binding. How it is done:
as §1

In experiment [7] the target is BRAF (Homo sapiens, UniProt P15056). More on the design: Thermo Fisher SelectScreen kinase panel: Z'-LYTE and Adapta activity, LanthaScreen binding. How it is done:
as §1

Experiment [8] has as its target T4, MEKK2 (Homo sapiens, UniProt Q9Y2U5).
T4 construct: gene MAP3K2
More on the design: Thermo Fisher SelectScreen kinase panel: Z'-LYTE and Adapta activity, LanthaScreen binding. How it is done:
as §1

The target of experiment [9] is PRKAA1 (Homo sapiens, UniProt Q13131). More on the design: Thermo Fisher SelectScreen kinase panel: Z'-LYTE and Adapta activity, LanthaScreen binding. How it is done:
as §1

For experiment [10], the target named is T5, PhK_gamma1 (Homo sapiens, UniProt Q16816).
T5 construct: gene PHKG1
T5 sequence (Q16816 whole entry): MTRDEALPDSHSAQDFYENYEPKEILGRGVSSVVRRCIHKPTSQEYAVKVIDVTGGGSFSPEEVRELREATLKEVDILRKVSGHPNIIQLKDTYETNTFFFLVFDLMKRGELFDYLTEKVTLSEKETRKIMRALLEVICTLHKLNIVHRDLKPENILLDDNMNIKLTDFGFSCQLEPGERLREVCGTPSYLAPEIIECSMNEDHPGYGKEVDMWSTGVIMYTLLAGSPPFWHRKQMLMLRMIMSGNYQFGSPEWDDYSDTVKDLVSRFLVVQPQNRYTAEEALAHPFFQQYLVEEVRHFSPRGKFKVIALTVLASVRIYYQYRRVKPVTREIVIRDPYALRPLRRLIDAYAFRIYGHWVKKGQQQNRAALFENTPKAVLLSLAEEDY
More on the design: Thermo Fisher SelectScreen kinase panel: Z'-LYTE and Adapta activity, LanthaScreen binding. How it is done: as §1

Experiment [11] concerns the target HIPK2 (Homo sapiens, UniProt Q9H2X6). Details: Thermo Fisher SelectScreen kinase panel: Z'-LYTE and Adapta activity, LanthaScreen binding. How it is done: as §1
The target of experiment [12] is T6, PKA (Homo sapiens, UniProt P17612).
T6 construct: gene PRKACA
Details: Thermo Fisher SelectScreen kinase panel: Z'-LYTE and Adapta activity, LanthaScreen binding. As for the experimental part: as §1

Experiment [13] has as its target T7, PhK_gamma2 (Homo sapiens, UniProt P15735).
T7 construct: gene PHKG2
Details: Thermo Fisher SelectScreen kinase panel: Z'-LYTE and Adapta activity, LanthaScreen binding. How it is done: as §1

The target of experiment [14] is NEK1 (Homo sapiens, UniProt Q96PY6). More on the design: Thermo Fisher SelectScreen kinase panel: Z'-LYTE and Adapta activity, LanthaScreen binding. As for the experimental part:
as §1

Experiment [15] deals with MUSK (Homo sapiens, UniProt O15146). More on the design: Thermo Fisher SelectScreen kinase panel: Z'-LYTE and Adapta activity, LanthaScreen binding. How it is done:
as §1

Experiment [16] concerns the target T8, MSK1 (Homo sapiens, UniProt O75582).
T8 construct: gene RPS6KA5
More on the design: Thermo Fisher SelectScreen kinase panel: Z'-LYTE and Adapta activity, LanthaScreen binding. How it is done: as §1

Experiment [17] deals with PAK1 (Homo sapiens, UniProt Q13153). More on the design: Thermo Fisher SelectScreen kinase panel: Z'-LYTE and Adapta activity, LanthaScreen binding. How it is done:
as §1

Experiment [18] deals with T9, ZIPK (Homo sapiens, UniProt O43293).
T9 construct: gene DAPK3
Details: Thermo Fisher SelectScreen kinase panel: Z'-LYTE and Adapta activity, LanthaScreen binding. How it is done: as §1

The target of experiment [19] is T10, JNK1 (Homo sapiens, UniProt P45983).
T10 construct: gene MAPK8
T10 sequence (P45983 whole entry): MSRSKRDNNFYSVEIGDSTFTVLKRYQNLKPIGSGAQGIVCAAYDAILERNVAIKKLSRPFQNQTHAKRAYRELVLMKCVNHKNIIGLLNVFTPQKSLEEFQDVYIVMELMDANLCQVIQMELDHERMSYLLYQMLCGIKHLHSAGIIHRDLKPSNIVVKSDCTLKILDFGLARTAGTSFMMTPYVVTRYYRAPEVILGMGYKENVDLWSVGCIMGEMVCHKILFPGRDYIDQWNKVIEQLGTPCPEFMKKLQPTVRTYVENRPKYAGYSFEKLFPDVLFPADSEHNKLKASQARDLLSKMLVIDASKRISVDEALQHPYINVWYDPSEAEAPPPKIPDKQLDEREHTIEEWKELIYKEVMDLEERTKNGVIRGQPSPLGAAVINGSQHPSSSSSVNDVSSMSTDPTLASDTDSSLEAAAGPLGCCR
Details: DiscoverX kinase panel, active-site competition binding (KINOMEscan type), percent of control at one concentration. Conditions: competition binding, percent of control.

PRKAA1, sequence (Q13131 whole entry): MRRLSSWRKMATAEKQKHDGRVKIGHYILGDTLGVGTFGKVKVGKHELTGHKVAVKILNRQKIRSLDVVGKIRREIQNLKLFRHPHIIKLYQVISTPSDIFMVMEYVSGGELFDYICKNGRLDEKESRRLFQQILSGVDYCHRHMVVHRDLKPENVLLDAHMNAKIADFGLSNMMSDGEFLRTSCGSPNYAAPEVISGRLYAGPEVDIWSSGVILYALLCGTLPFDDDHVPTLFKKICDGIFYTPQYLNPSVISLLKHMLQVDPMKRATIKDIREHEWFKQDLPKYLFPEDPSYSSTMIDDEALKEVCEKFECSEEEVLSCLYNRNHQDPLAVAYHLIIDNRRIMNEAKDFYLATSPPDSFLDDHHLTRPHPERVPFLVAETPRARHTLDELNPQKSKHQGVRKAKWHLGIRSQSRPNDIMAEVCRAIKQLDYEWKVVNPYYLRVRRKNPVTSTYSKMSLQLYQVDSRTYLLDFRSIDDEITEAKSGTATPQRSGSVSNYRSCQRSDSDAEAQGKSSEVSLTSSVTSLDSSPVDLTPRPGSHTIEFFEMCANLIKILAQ
GRK6, sequence (P43250 whole entry): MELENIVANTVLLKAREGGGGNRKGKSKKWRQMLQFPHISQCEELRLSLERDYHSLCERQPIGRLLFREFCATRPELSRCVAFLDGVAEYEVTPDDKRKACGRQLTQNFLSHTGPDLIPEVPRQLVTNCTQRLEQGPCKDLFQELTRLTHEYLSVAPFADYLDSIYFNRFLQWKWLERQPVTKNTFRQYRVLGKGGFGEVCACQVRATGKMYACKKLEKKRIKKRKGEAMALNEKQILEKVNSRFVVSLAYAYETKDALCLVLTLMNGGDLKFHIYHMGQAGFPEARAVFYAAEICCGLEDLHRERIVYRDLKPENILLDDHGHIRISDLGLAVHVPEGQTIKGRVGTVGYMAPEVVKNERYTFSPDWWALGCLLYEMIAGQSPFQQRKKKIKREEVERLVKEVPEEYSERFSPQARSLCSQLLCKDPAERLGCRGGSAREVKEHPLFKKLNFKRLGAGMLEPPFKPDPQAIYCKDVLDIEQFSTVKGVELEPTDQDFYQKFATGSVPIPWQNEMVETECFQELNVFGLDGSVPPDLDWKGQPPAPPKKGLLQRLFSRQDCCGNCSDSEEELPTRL
BRAF, sequence (P15056 whole entry): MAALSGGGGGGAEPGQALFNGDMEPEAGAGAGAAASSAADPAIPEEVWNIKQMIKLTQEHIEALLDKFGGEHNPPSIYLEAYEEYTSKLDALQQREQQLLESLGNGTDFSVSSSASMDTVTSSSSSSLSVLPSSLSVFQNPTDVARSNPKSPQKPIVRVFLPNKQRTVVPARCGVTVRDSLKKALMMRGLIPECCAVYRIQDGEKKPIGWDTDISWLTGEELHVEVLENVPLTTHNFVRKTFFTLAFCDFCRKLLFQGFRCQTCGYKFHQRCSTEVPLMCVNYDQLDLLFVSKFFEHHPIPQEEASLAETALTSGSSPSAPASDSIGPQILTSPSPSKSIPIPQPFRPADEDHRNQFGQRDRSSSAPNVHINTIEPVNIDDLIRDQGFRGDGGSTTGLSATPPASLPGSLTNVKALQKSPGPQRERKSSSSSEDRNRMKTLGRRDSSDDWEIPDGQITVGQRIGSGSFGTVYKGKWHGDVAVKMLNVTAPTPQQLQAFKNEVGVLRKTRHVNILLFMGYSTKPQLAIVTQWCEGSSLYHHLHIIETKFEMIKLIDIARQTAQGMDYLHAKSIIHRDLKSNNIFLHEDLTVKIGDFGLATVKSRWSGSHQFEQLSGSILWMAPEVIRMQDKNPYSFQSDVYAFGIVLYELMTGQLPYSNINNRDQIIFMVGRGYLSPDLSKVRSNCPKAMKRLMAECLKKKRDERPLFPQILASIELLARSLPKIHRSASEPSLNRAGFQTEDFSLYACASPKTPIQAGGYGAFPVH
T7 sequence (P15735 whole entry): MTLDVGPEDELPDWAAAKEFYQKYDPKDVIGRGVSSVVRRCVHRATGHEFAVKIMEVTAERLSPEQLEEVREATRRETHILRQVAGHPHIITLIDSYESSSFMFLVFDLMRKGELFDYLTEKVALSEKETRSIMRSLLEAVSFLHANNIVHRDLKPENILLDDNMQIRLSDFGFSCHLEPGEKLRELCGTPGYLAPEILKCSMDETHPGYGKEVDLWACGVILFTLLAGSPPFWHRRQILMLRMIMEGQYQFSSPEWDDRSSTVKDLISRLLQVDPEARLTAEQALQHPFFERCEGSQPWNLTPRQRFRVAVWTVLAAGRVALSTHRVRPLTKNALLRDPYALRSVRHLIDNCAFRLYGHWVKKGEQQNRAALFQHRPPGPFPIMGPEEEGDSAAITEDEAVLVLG
PAK1, sequence (Q13153 whole entry): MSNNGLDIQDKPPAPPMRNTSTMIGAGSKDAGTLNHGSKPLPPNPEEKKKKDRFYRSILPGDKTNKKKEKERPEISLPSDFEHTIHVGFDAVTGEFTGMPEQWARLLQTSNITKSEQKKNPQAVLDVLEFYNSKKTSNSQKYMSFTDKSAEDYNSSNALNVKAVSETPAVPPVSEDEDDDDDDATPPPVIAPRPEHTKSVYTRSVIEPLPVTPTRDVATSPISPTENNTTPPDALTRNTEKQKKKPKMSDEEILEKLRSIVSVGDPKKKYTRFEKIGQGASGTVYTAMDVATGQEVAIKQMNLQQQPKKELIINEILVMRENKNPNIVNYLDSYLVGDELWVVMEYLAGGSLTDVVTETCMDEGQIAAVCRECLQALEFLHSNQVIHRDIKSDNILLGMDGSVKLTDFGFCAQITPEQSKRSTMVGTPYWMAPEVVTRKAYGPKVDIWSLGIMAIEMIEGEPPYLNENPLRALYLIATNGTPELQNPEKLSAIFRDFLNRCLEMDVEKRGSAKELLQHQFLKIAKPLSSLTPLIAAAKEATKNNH

`COc1cc2c(cn1)N(C)C(=O)[C@@H](NC(=O)c1nc3n(n1)[C@H](c1ccccc1)CC3)CC2` [GNE684, (S)-N-((S)-7-methoxy-1-methyl-2-oxo-2,3,4,5-tetrahydro-1H-pyrido[3,4-b]azepin-3-yl)-5-phenyl-6,7-dihydro-5H-pyrrolo[1,2-b][1,2,4]triazole-2-carboxamide]: the inhibition at 10 µM in experiment [1] was 6.5%; in experiment [2], 4%; in experiment [3], 5%; in [4] it was 3.5%; in experiment [5] it was -4.5%; in [6], 6.5%. Moreover, the inhibition at 10 µM in experiment [7] is 6.5%; in experiment [8] it was 7%; in experiment [9], -3%; in experiment [10], 0%; in experiment [11], -1.5%; in [12], 1%. In addition, the inhibition at 10 µM in [13] is 1%; in experiment [14], 7.5%; in experiment [15], 14%; in [16] it was -4%; in [17], 2.5%; in [18] it was 1%. This compound gave a remaining binding at 10 µM in experiment [19] of 97%.

As usually defined, the inhibition is the change of the read-out against control, counted positive when it falls.
